According to patent US11033569B2, “Compounds,Compositions, and methods for the treatment of disease” (Sperovie Biosciences, Inc., priority 2016, dated 2021):
Entries after “also recorded” stand apart in the source; their conditions may differ.

Key:
ISG54 ISRE-luc reporter = ISG54 ISRE-luc reporter activation in HEK293 (SZ14) cells, screen for STING agonists; type: cell-based; details: digitonin buffer, 5 hours, read-out: IRF EC50
Experimental: (§1) ISG54 or NF-κβ activity was determined using the Steady-glo buffer system (Promega), and are expressed as EC50 values summarized in Table 3 below. […] This calculation is applicable for compounds with enzyme inhibition activity, as the baseline for an untreated sample may be set at 100% enzymatic activity, and therefore % inhibition is evaluated based on this 100% maximal basis. For these studies, the EC50 value relates to the concentration required to achieve a value 50% activity level above the untreated sample set at 0%.
(§2) Data are shown as fold induction over cells that received DMSO (compound carrier) alone as the mean, +/−standard deviation of duplicate wells per stimulant.

mouse macrophages = experiment: Type I IFN signaling in mouse macrophages; type: cell-based
Experimental: Activity of secreted luciferase in cell culture supernatant was measured using Invivogen Quanti-luc. Data are shown as fold induction over DMSO treated cells (mean±standard deviation of triplicate wells per stimulant).

[1] = test system: A20 mouse B cell lymphoma tumor cells; experiment: Apoptosis-related genes and ISGs in A20 mouse B cell lymphoma tumor cells; type: cell-based; details: compared with 2′3′-cGAMP
[2] = test system: mouse lymphoma cell line A20; experiment: Apoptosis in mouse lymphoma cell line A20; type: cell-based; details: A20 cells
[3] = target: STING-HAQ polymorphic variant (Homo sapiens, UniProt Q86WV6, G230A/H232R/R293Q/R71H); experiment: Activation of STING-HAQ polymorphic variant; type: cell-based; details: major STING-HAQ polymorphic variant in humans
[4] = test system: tumor cells and THP1 cells; experiment: Tumor cell growth, high-content image-based approach
mouse melanoma cells = experiment: Apoptosis of mouse melanoma cells; type: cell-based
STING [5] = target: T1, STING (Homo sapiens, UniProt Q86WV6); experiment: STING dependence of cell death; type: cell-based
T1 construct: host or cells: SZ14 HEK293 cells stably expressing ISG54 ISRE-luc reporter

STING [6] = target: T1, STING; experiment: STING binding / type I IFN signaling (ISRE-luciferase); type: cell-based; details: similar to 2′,3′-cGAMP
Experimental: SZ14 HEK293 cells stably expressing the ISG54 ISRE-luc reporter gene were treated with compound exemplary compounds Cmd 1, 2′ 3-cGAMP (natural STING ligand), or DMSO in the presence of digitonin for 5-6 hrs. ISRE-luciferase activity was determined and normalized to DMSO treated cells (mean±standard deviation of triplicate wells per stimulant).

NF-κβ-luc reporter = NF-κβ-luc reporter activation in HEK293 (SZ14) cells, screen for STING agonists; type: cell-based; details: digitonin buffer, 5 hours, read-out: NF-KB EC50
Experimental: as §1, §2

A20 lymphoma = experiment: Syngeneic A20 lymphoma mouse model; type: in vivo; details: for tumor growth upon re-challenge with tumor cells: compared with control
[7] = test system: mouse A20 B cell lymphoma tumor cells; experiment: Inhibition of mouse A20 B cell lymphoma tumor cells; details: FIGS. 48A-48D
[8] = Immunohistochemistry on tissues from treated mice; type: in vivo
THP1 cells and PBMCs = experiment: Caspase-Glo 3/7 apoptosis assay, THP1 vs. PBMCs; type: cell-based; details: Lipofectamine LTX, 20 h
Experimental: The Apoptosis in THP1 cells and PBMCs was assessed using Caspase-Glo® 3/7 Assay (Promega). […] The caspase-3 and -7 activity was measured by using a proluminescent caspase-3/7 substrate that contains the tetrapeptide sequence DEVD which will be cleaved to release aminoluciferin, a substrate of luciferase used in the production of light. After incubation for 20 h, Apoptotic activity was assessed by measure levels of aminoluciferin. % Apoptosis was calculated from fold change in luminescence compared to DMSO treated sample.

THP1 cells [9] = experiment: Type III IFN (IL-29) production in THP1 cells (ELISA); type: cell-based; details: 21 hrs
Experimental: Level of IL-29 in culture supernatant was determined using ELISA. Results shown are the average±standard deviation of duplicate wells.

[10] = test system: IRF-type I and type III IFN response; experiment: IRF-type I and type III IFN response; type: cell-based
[11] = test system: human natural killer (NK) cells; experiment: Human natural killer (NK) cell activation; type: cell-based
THP1 cells [12] = experiment: Caspase-Glo 3/7 apoptosis assay in THP1 cells; type: cell-based; details: THP1, Lipofectamine LTX, 20 h
Experimental: The Apoptosis in THP1 cells was assessed using Caspase-Glo® 3/7 Assay (Promega). […] The caspase-3 and -7 activity was measured by using a pro-luminescent caspase-3/7 substrate that contains the tetrapeptide sequence DEVD which is cleaved to release amino-luciferin, a substrate of luciferase used in the production of light. After incubation for 20 h, Apoptotic activity was assessed by measuring levels of amino-luciferin. % Apoptosis was calculated from fold-change in luminescence compared to DMSO-treated sample. CC50 values are generated by curve fit in Xlfit.

human monocytes = experiment: Activity in human monocytes; type: cell-based; details: human monocytes (FIG. 36A)
[13] = test system: STING-R238A and STING-Y167A; experiment: STING loss-of-function mutants, STING-dependent IFN response; type: cell-based
CT26 colon cancer = experiment: Syngeneic CT26 colon cancer mouse model; type: in vivo
[14] = test system: CD8+ T cells, CD4+ T cells, and MDSCs; experiment: Flow cytometry of immune cells in spleen, lymph nodes and blood; type: in vivo; details: lymph nodes and blood on day 19, compared with vehicle
Tumor cells = experiment: Tumor cell growth inhibition (DAPI imaging, ImageXpress); type: cell-based; details: once daily for 3 days, no lipofectamine
Experimental: Tumor cells in 96-well plate were treated once daily with Cmd 1 (no lipofectamine) or recombinant IFN (U-IFN) for 3 days. Cells were fixed with 1% paraformaldehyde and stained with DAPI. Cells were automatically imaged on ImageXpress and total number of survival cells were analyzed using MetaXpress software. Results are shown as total number of cells per group or % reduction calculated by normalizing to DMSO treated cells.

T1 sequence (Q86WV6 whole entry): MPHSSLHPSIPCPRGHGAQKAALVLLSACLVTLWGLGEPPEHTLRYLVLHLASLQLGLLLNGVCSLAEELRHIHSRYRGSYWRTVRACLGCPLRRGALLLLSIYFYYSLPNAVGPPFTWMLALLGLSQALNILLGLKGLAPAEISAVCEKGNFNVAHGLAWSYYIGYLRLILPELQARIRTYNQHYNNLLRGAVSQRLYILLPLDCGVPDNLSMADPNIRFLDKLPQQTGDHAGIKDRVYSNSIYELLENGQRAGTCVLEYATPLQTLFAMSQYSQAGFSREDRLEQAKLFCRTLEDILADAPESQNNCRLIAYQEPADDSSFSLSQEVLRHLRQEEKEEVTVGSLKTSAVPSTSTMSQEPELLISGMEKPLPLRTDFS
Sequence of STING-HAQ polymorphic variant (Q86WV6 whole entry R71H/G230A/H232R/R293Q): as the sequence (Q86WV6 whole entry) above, with R71H, G230A, H232R, R293Q counted along it

In the case of `CCCCCCCCCCOc1ccc(C(=O)Oc2ccc(CSP3(=O)OC[C@H]4O[C@@H](n5cnc6c(N)ncnc65)[C@H](F)[C@@H]4OP(=O)(O)OC[C@H]4O[C@@H](n5ccc(=O)[nH]c5=O)[C@H](F)[C@@H]4O3)cc2)cc1.N` (some centres unmarked) [Cmd 1], the EC50 (ISG54 ISRE-luc reporter) is reported as < 50 nM, the “activity relative to natural STING ligand 3′,3′-cGAMP” value (mouse macrophages; mouse macrophages (FIG. 36B)) is reported as “more active” and the “activation of type 1 IFN signaling” value (mouse macrophages; mouse macrophages, similar to 2′,3′-cGAMP) is reported as “highly active”. The BAX/BCL2 ratio [1] was “higher BAX/BCL2 ratio”, the apoptosis [2] was “induces apoptosis” and the “activation of STING-HAQ variant” value [3] was “capable of activating”. For the same compound, the anti-tumor activity ([4]; high-content image-based approach (FIG. 49)) was “anti-tumor activity”, the “STING dependence of tumor cell growth inhibition” value ([4]; tumor cells and THP1 cells) was “STING dependent” and the tumor cell growth ([4]; tumor cells and THP1 cells, high-content image-based approach) was “inhibits tumor cell growth”. The apoptosis (mouse melanoma cells) was “causes apoptosis”, the “STING dependence of induction of cell death” value (STING [5]) was “STING-mediated” and the “STING binding and type 1 IFN signaling” value (STING [6]) was “binds to STING to activate type 1 IFN signaling”. The EC50 (NF-κβ-luc reporter) was 50 to 500 nM, the survival rate (A20 lymphoma; combination therapy with cyclophosphamide) was “significantly improve the survival rate” and the tumor-free survival (A20 lymphoma; in combination with cyclophosphamide) was “results in tumor-free survival”. For the same compound, the survival rate (A20 lymphoma; monotherapy) was “significantly improve the survival rate”, the tumor growth (A20 lymphoma; monotherapy, compared with vehicle) was “potently inhibits lymphoma tumor growth; also recorded: considerable tumor growth inhibition; also recorded: inhibit mouse A20 B cell lymphoma tumor cells” and the “migration of CD8 T cells into the tumor site (immunohistochemistry)” value (A20 lymphoma; tumor tissue, vs vehicle) was “induces migration of CD8 T into the tumor site”. For the same compound, the “migration of NK cells into the tumor site (anti-granzyme B immunohistochemistry)” value (A20 lymphoma; tumor tissue, vs vehicle) was “induces migration of NK cells into the tumor site”, the “migration of macrophages into the tumor site (anti-F4/80 immunohistochemistry)” value (A20 lymphoma; tumor tissue, vs vehicle) was “induces migration of macrophages into the tumor site” and the “tumor growth upon re-challenge with tumor cells” value (A20 lymphoma; tumor-free mice after Cmd 1 + cyclophosphamide treatment) was “no tumor growth”. For the same compound, the “tumor growth upon re-challenge with tumor cells” value (A20 lymphoma; tumor-free mice after Cmd 1 treatment) was “no tumor growth”, the “inhibition of tumor cells” value [7] was “inhibits mouse A20 B cell lymphoma tumor cells” and the “correlation of anti-tumor activity with immune response” value [8] was “correlates with the induction of the innate and adaptive immune response”. For the same compound, the “selectivity of apoptosis induction THP1 vs. PBMCs” value (THP1 cells and PBMCs) was “selective induction of apoptosis”, the “type III interferon (IL-29) production” value (THP1 cells [9]) was “induce type III interferon (IL-29) production” and the “IRF-type I and type III IFN response” value [10] was “strongly activates”. For the same compound, the NK cell activation [11] was “activates human natural killer (NK) cells”, the IFN-γ production ([11]; human NK cells) was “induces IFN-γ production” and the apoptosis (THP1 cells [12]) was “Causes Cell Death by Apoptosis”. The “activity relative to natural STING ligand 3′,3′-cGAMP” value (human monocytes) was “more active”, the “dependence of STING activation on residues R238 and Y167” value [13] was “critical” and the “abscopal antitumoral activity, tumor volume left and right flank” value (CT26 colon cancer; administered intratumorally, 13 days post initiation treatment, vs vehicle) was “considerable tumor growth inhibition”. For the same compound, the survival rate (CT26 colon cancer; combination therapy with an anti-CTLA4 antibody) was “significantly improve the survival rate”, the tumor growth (CT26 colon cancer; doses 10 μg, 30 μg, and 100 μg, vs vehicle) was “considerable tumor growth inhibition at all three doses” and the tumor growth (CT26 colon cancer; intratumoral administration, vs vehicle (FIG. 79)) was “considerable tumor growth inhibition”. The tumor growth (CT26 colon cancer; intratumoral administration, vs vehicle, vehicle and Ethanol (FIG. 80)) was “considerable tumor growth inhibition”, the survival rate (CT26 colon cancer; monotherapy) was “significantly improve the survival rate” and the tumor growth (CT26 colon cancer; syngeneic CT26 colon cancer model (FIG. 62)) was “highly effective in inhibiting tumor growth”. For the same compound, the “induction of CD8+ T cells, CD4+ T cells, and MDSCs” value [14] was “increase in CD8+ T cells, CD4+ T cells, and MDSCs” and the tumor cell growth (Tumor cells) was “Inhibits Tumor Cell Growth”.
